Read-outs that look alike come from different tables or passages of the source.
Tests used:
[1] = for logp [a]: pH 2.3; for logp [b]: pH 2.7; for logp [c]: pH 7.8
[2] = physchem; conditions: pH 2.3
[3] = system: Gibberella zeae; conditions: in vivo
[4] = system: Production of Fumonisin FB1 by Fusarium Proliferatum; assay: Production of fumonisin FB1 by Fusarium proliferatum; assay type: cell-based; conditions: FB1 concentration by HPLC-MS/MS after 6 days at 20° C.
[5] = system: Fusarium proliferatum; assay: Growth of Fusarium proliferatum (OD620) in the fumonisin test; assay type: cell-based; conditions: OD620 at the beginning and after 6 days
[6] = logP determination by HPLC on reversed-phase columns (EEC directive 79/831 Annex V.A8); conditions: for logp [a] / logp [b]: acidic range; for logp [a]: pH 2.3, 0.1% aqueous phosphoric acid and acetonitrile; for logp [b] / logp [c]: LC-MS; for logp [b]: pH 2.7, 0.1% aqueous formic acid and acetonitrile; for logp [c]: neutral range, pH 7.8, 0.001 molar aqueous ammonium bicarbonate and acetonitrile

**Q.** With CC1CC1Nc1nc(Nc2ccsc2)ncc1Cl (mixture of isomers) [Example 17] as the molecule, how does the “logp [a]” value [1] read?
**A.** The value was 1.97[a].

**Q.** For CC(=O)c1ccc(N)s1 [1-(5-Amino-2-thienyl)ethanone], which chromatographic logP [2] is on record?
**A.** The chromatographic logP was 0.42.

**Q.** For Cc1ccc(NC(=O)OC(C)(C)C)s1 [2-(N-tert-Butoxycarbonylamino)-5-methylthiophene], which chromatographic logP [2] is on record?
**A.** The chromatographic logP was 2.89.

**Q.** Which “logp [b]” value [1] does the source give for Clc1cnc(Nc2ccsc2)nc1NC1CC1 [Example 1] here?
**A.** The value was 1.63[b].

**Q.** What does the source list for FC(F)(F)c1cnc(Nc2ccsc2)nc1NC1CC1 [Example 2]?
**A.** efficacy [3]: ≥ 80%; logp [b] [1]: 2.69[b]

**Q.** With Brc1cnc(Nc2ccsc2)nc1NC1CCC1 [Example 3] as the molecule, how does the “logp [b]” value [1] read?
**A.** Its value is 2.12[b].

**Q.** Which “logp [b]” value [1] does the source give for Brc1cnc(Nc2ccsc2)nc1NC1CC1 [Example 4] here?
**A.** The value was 1.71[b].

**Q.** Which results are given for COC(=O)c1cc(Nc2ncc(Cl)c(NC3CC3)n2)cs1 [Example 5, 5-Chloro-N^4-cyclopropyl-N^2-2-methoxycarbonylthiophen-4-yl-2,4-diamine]?
**A.** pI50 Fum [4]: 5.3; pI50 growth [5]: 4.4; logp [a] [6]: 1.68[a]; logP (pH 2.3) [6]: 1.68

**Q.** With O=C(c1cc(Nc2ncc(Cl)c(NC3CC3)n2)cs1)N1CCCC1 [Example 6, 5-Chloro-N^4-cyclopropyl-N^2-2-pyrrolidin-1-ylcarbonylthiophen-4-yl-2,4-diamine] as the molecule, how does the “pI50 Fum” value [4] read?
**A.** Its value is 5.9.

**Q.** What about the pI50 growth [5] of the same molecule?
**A.** The pI50 growth was 5.6.

**Q.** And the “logp [a]” value [6]?
**A.** Its value is 1.42[a].

**Q.** What about the “logP (pH 2.3)” value [6] of the same molecule?
**A.** The value was 1.40.

**Q.** With O=C(c1cc(Nc2ncc(Cl)c(NC3CC3)n2)cs1)N1CCCCC1 [Example 7] as the molecule, how does the “logp [a]” value [1] read?
**A.** Its value is 1.68[a].

**Q.** With CC(C)N(C)C(=O)c1cc(Nc2ncc(Cl)c(NC3CC3)n2)cs1 [Example 8] as the molecule, how does the “logp [a]” value [1] read?
**A.** Its value is 1.6[a].

**Q.** For CCN(CC)C(=O)c1cc(Nc2ncc(Cl)c(NC3CC3)n2)cs1 [Example 9], which “pI50 Fum” value [4] is on record?
**A.** The value was 6.0.

**Q.** And the pI50 growth [5]?
**A.** The pI50 growth was 5.5.

**Q.** And the “logp [a]” value [1]?
**A.** Its value is 1.62[a].

**Q.** With CC(=O)c1ccc(Nc2ncc(Cl)c(NC3CC3)n2)s1 [Example 10, N^4-Cyclopropyl-N^2-2-acetylthiophen-5-yl-5-(chloro)pyrimidine-2,4-diamine] as the molecule, how does the chromatographic logP [2] read?
**A.** The chromatographic logP was 1.87.

**Q.** Which “logp [a]” value [1] does the source give for N#Cc1csc(Nc2ncc(Cl)c(NC3CC3)n2)c1 [Example 12] here?
**A.** The value was 2.55[a].

**Q.** With CC(=O)c1cc(Nc2ncc(Cl)c(NC3CC3)n2)cs1 [Example 13] as the molecule, how does the “logp [a]” value [1] read?
**A.** The value was 1.44[a].

**Q.** For N#Cc1cc(Nc2ncc(Cl)c(NC3CC3)n2)cs1 [Example 14], which “logp [a]” value [1] is on record?
**A.** The value was 2.23[a].

**Q.** For Clc1cnc(Nc2ccsc2)nc1NC1CCC1 [Example 18], which “logp [b]” value [1] is on record?
**A.** The value was 1.96[b].

**Q.** What about the “logp [c]” value [1] of the same molecule?
**A.** Its value is 3.46[c];.

**Q.** With O=C(c1cc(Nc2ncc(Cl)c(NC3CC3)n2)cs1)N1CCOCC1 [Example 19] as the molecule, how does the “logp [b]” value [1] read?
**A.** The value was 1.45[b].

**Q.** What about the “logp [c]” value [1] of the same molecule?
**A.** Its value is 2.09[c];.

**Q.** With CC(C)(C)NC(=O)c1cc(Nc2ncc(Cl)c(NC3CC3)n2)cs1 [Example 20] as the molecule, how does the “logp [b]” value [1] read?
**A.** Its value is 2.11[b].

**Q.** Which “logp [c]” value [1] does the source give for C=CCNC(=O)c1cc(Nc2ncc(Cl)c(NC3CC3)n2)cs1 [Example 21] here?
**A.** Its value is 2.28[c].

**Q.** Which results are given for C=CCN(C)C(=O)c1cc(Nc2ncc(Cl)c(NC3CC3)n2)cs1 [Example 22]?
**A.** logp [b] [1]: 1.89[b]; logp [c] [1]: 2.65[c];

**Q.** Which results are given for COCCNC(=O)c1cc(Nc2ncc(Cl)c(NC3CC3)n2)cs1 [Example 23]?
**A.** logp [b] [1]: 1.38[b]; logp [c] [1]: 2.01[c];

**Q.** Which results are given for COCC(C)NC(=O)c1cc(Nc2ncc(Cl)c(NC3CC3)n2)cs1 (stereo not shown) [Example 24]?
**A.** logp [b] [1]: 1.58[b]; logp [c] [1]: 2.22 [c];

**Q.** What does the source list for O=C(NO)c1cc(Nc2ncc(Cl)c(NC3CC3)n2)cs1 [Example 25]?
**A.** logp [b] [1]: 2.1[b]; logp [c] [1]: 2.96[c];

**Q.** What does the source list for Cc1ccc(Nc2ncc(Cl)c(NC3CC3)n2)s1 [Example 26, 5-Chloro-N^4-cyclopropyl-N^2-2-methylthiophen-5-yl-2,4-diamine]?
**A.** logp [b] [6]: 2.09[b]; logp [c] [6]: 3.20[c];; logP (pH 2.3) [6]: 2.09

**Q.** With CC(C)Nc1nc(Nc2ccsc2)ncc1Cl [Example 27] as the molecule, how does the “logp [b]” value [1] read?
**A.** The value was 1.66[b].

**Q.** And the “logp [c]” value [1]?
**A.** Its value is 3.28[c];.

**Q.** For CC(C)Nc1nc(Nc2ccsc2)ncc1Br [Example 28], which “logp [b]” value [1] is on record?
**A.** Its value is 1.85[b].

**Q.** And the “logp [c]” value [1]?
**A.** Its value is 3.43[c];.

**Q.** With FC(F)(F)CNc1nc(Nc2ccsc2)ncc1Br [Example 29] as the molecule, how does the “logp [c]” value [1] read?
**A.** The value was 3.50[c].

**Q.** With FC(F)CNc1nc(Nc2ccsc2)ncc1Br [Example 30] as the molecule, how does the “logp [b]” value [1] read?
**A.** Its value is 1.99[b].

**Q.** What about the “logp [c]” value [1] of the same molecule?
**A.** Its value is 2.83[c];.

**Q.** For FC(F)CNc1nc(Nc2ccsc2)ncc1Cl [Example 31], which “logp [b]” value [1] is on record?
**A.** Its value is 1.88[b].

**Q.** What about the “logp [c]” value [1] of the same molecule?
**A.** The value was 2.72[c];.

**Q.** Which “logp [b]” value [1] does the source give for Clc1cnc(Nc2ccsc2)nc1NCC1CC1 [Example 32] here?
**A.** Its value is 2.33[b].

**Q.** What about the “logp [c]” value [1] of the same molecule?
**A.** The value was 3.31[c];.

**Q.** With CS(=O)(=O)c1ccc(Nc2ncc(Cl)c(NC3CC3)n2)s1 [Example 33] as the molecule, how does the “logp [b]” value [1] read?
**A.** Its value is 1.97[b].

**Q.** What about the “logp [c]” value [1] of the same molecule?
**A.** Its value is 2.02[c];.

**Q.** With CSc1ccc(Nc2ncc(Cl)c(NC3CC3)n2)s1 [Example 34] as the molecule, how does the “logp [b]” value [1] read?
**A.** The value was 2.84[b].

**Q.** What about the “logp [c]” value [1] of the same molecule?
**A.** The value was 3.36[c];.

**Q.** With CSc1ccc(Nc2ncc(Br)c(NC3CC3)n2)s1 [Example 35] as the molecule, how does the “logp [b]” value [1] read?
**A.** Its value is 3.02[b].

**Q.** What about the “logp [c]” value [1] of the same molecule?
**A.** The value was 3.53[c];.

**Q.** With Cc1ccc(Nc2ncc(C(F)(F)F)c(NC3CC3)n2)s1 [Example 36] as the molecule, how does the “logp [b]” value [1] read?
**A.** Its value is 3.22[b].

**Q.** And the “logp [c]” value [1]?
**A.** Its value is 3.56[c];.

**Q.** Which results are given for O=C(O)c1cc(Nc2ncc(Cl)c(NC3CC3)n2)cs1 [Example 37, 5-Chloro-N^4-cyclopropyl-N^2-2-hydroxycarbonylthiophen-4-yl-2,4-diamine]?
**A.** logp [b] [6]: 1.30[b]; logp [c] [6]: 0.74[c];; logP (pH 2.3) [6]: 1.30

**Q.** What does the source list for CN(CC1CC1)C(=O)c1cc(Nc2ncc(Cl)c(NC3CC3)n2)cs1 [Example 38]?
**A.** logp [b] [1]: 2.08[b]; logp [c] [1]: 2.86[c];

**Q.** Which “logp [b]” value [1] does the source give for S=C(c1cc(Nc2ncc(Cl)c(NC3CC3)n2)cs1)N1CCCC1 [Example 39] here?
**A.** The value was 2.31[b].

**Q.** What about the “logp [c]” value [1] of the same molecule?
**A.** Its value is 3.23[c];.

**Q.** Which “logp [b]” value [1] does the source give for CCN(CC)C(=S)c1cc(Nc2ncc(Cl)c(NC3CC3)n2)cs1 [Example 40] here?
**A.** The value was 2.55[b].

**Q.** What about the “logp [c]” value [1] of the same molecule?
**A.** Its value is 3.51[c];.

**Q.** For Clc1cc(Nc2ncc(Cl)c(NC3CC3)n2)cs1 [Example 41], which “logp [b]” value [1] is on record?
**A.** The value was 2.63[b].

**Q.** With Clc1ccc(Nc2ncc(Cl)c(NC3CC3)n2)s1 [Example 43] as the molecule, how does the “logp [c]” value [1] read?
**A.** Its value is 3.54[c];.

**Q.** For Cc1ccc(Nc2ncc(Br)c(NC3CC3)n2)s1 [Example 44], which “logp [b]” value [1] is on record?
**A.** The value was 2.27[b].

**Q.** And the “logp [c]” value [1]?
**A.** The value was 3.35[c];.

**Q.** With Clc1cnc(Nc2ccsc2)nc1Cl [Example X-1, 4,5-Dichloro-N-(3-thienyl)pyrimidin-2-amine] as the molecule, how does the chromatographic logP [2] read?
**A.** The chromatographic logP was 3.55.

**Q.** For O=c1[nH]c(Nc2ccsc2)ncc1Cl [IX-1, 2-(Thiophen-3-ylamino)-5-chloropyrimidin-4(3H)-one], which chromatographic logP [2] is on record?
**A.** Its chromatographic logP is 1.38.

Reference: patent US20110237612A1, “Thienylamino pyrimidines for use as Fungicides” (BayerCropScience AG, priority 2008, published 2011)
